In patent publication US9738610B2, “Indazole derivatives and uses thereof” (Whitehead Institute for Biomedical Research, priority 2012, dated 2017):

Tests used:
[1] = biological target: T1, yeast (Saccharomyces cerevisiae, UniProt P00163); assay: IC50 values and selectivity of Table 10A (target yeast, anti-target human cytochrome); type: biochemical; conditions: for IC50: target is yeast; for Selectivity* (anti-target IC50)/(target IC50): target yeast, anti-target human cytochrome
T1 construct: Mitochondrial membranes were prepared from yeast; endogenous in cells; host or cells: yeast (mitochondrial membranes)
Method: All measurements were performed in triplicate.

[2] = Plasma stability; conditions: % remaining in human plasma after a 5-hour incubation
[3] = tested on: C. albicans CaCi-8; assay: microbe, parasite or virus in culture; type: cell-based, Candida albicans; conditions: in the presence of fluconazole; read-out: Target Potency (μM) Mean ± S.E.M CaCi-8^a IC50
Method: This subset was re-subjected to the primary assay and was also tested concurrently in two secondary assays. Secondary assay 1 measured chemosensitization of the more resistant CaCi-8 strain. Secondary assay 2 eliminated anything with inherently antifungal activity. […] A final assay (secondary assay 3) was incorporated to discard any compound displaying toxicity to mammalian fibroblasts. […] This screening campaign is also illustrated in FIG. 3B.
Those that inhibited growth in the resistant strain were also tested for toxicity against Candida in the absence of fluconazole and for toxicity against mammalian cells using a fluorescence reporter assay. The positive control for screening in the Candida and mammalian cell assays was the Hsp90 inhibitor geldanamycin (acting in concert with fluconazole; FIG. 4). Compounds that passed these four hurdles were binned through use of a Saccharomyces assay to determine whether the mechanism of action might be through the Hsp90 pathway, the calcineurin pathway, or an uncategorized mechanism.

[4] = Plasma protein binding; conditions: % bound in human plasma

SMILES | IC50 [1] [nM] | Selectivity* (anti-target IC50)/(target IC50) [1] | Plasma Stability [2] [%] | IC50 [3] [µM] | Plasma Protein Binding [4] [%]
Cc1nnc(Cn2nc(-c3ccccc3)c3ccccc32)o1 [Compound I-84] | 8000 | >32 | – | – | –
Cc1cccc2c(-c3cc(OCCCC4CCCCC4)ccc3F)nn(Cc3nnn(C)n3)c12 [Compound I-103] | 7 | 71 | – | – | –
COC(=O)Cn1nc(-c2ccccc2Cl)c2ccccc21 [Compound I-132] | 750 | 32 | – | – | –
N#Cc1ncccc1-n1nc(-c2ccccc2)c2ccccc21 [Compound I-112] | > 120000 | – | – | – | –
Cn1nncc1Cn1nc(-c2ccccc2)c2ccccc21 [Compound I-95] | > 20000 | – | – | – | –
Cn1cc(Cn2nc(-c3ccccc3)c3ccccc32)nn1 [Compound I-94] | 40000 | >4 | – | – | –
COC(=O)Cn1nc(-c2ccccc2)c2c(C(F)(F)F)cccc21 [Compound I-89] | 10000 | 3.75 | – | – | –
COC(=O)Cn1nc(-c2cc(OCCCC3CCCCC3)ccc2F)c2ccccc21 [Compound I-100] | 7 | 54 | – | – | –
COC(=O)Cn1nc(-c2cc(OCc3ccccc3)ccc2C)c2ccccc21 [Compound I-135] | 800 | 3.75 | – | – | –
Cc1cccc2c(-c3cc(C(F)(F)F)ccc3F)nn(Cc3cnccn3)c12 [Compound I-126] | 94 | 320 | – | – | –
COC(=O)Cn1nc(-c2cccc(OCCN(C(C)C)C(C)C)c2)c2ccccc21 [Compound I-139] | 1000 | 6 | – | – | –
COC(=O)Cn1nc(-c2c(F)cccc2F)c2ccccc21 [Compound I-128] | 500 | 32 | – | – | –
Cn1nnnc1Cn1nc(-c2ccccc2)c2ccccc21 [Compound I-91] | > 20000 | – | – | – | –
COC(=O)Cn1nc(-c2cccc(OCCC34CC5CC(CC(C5)C3)C4)c2)c2ccccc21 [Compound I-80] | 12.5 | 20 | – | – | –
COC(=O)Cn1nc(-c2c(C)cccc2C)c2ccccc21 [Compound I-127] | > 32000 | – | – | – | –
COC(=O)Cn1nc(-c2ccc(F)cc2F)c2ccccc21 [Compound I-70] | 275 | 58.2 | – | – | –
Cn1nnc(Cn2nc(-c3ccccc3)c3ccccc32)n1 [Compound I-90] | 1250 | 32 | – | – | –
COC(=O)Cn1nc(-c2cc(F)ccc2F)c2ccccc21 [Compound I-129] | 150 | 133 | – | – | –
c1ccc(-c2nn(Cc3ncccn3)c3ccccc23)cc1 [Compound I-123] | > 120000 | – | – | – | –
COC(=O)Cn1nc(-c2cc(F)ccc2C)c2ccccc21 [Compound I-131] | 400 | 40 | – | – | –
COC(=O)Cn1nc(-c2cccc(OCCN(C)C)c2)c2ccccc21 [Compound I-137] | > 32000 | – | – | – | –

SMILES | IC50 [1] [nM] | Selectivity* (anti-target IC50)/(target IC50) [1] | Plasma Stability [2] [%] | IC50 [3] [µM] | Plasma Protein Binding [4] [%]
COC(=O)Cn1nc(C)c2ccccc21 [Compound 46856254] | – | – | 3.0 | 21.3 ± 8.1 | 42
COC(=O)Cn1nc(-c2cccc(F)c2F)c2ccccc21 [Compound I-130] | 250 | 32 | – | – | –
c1ccc(-c2nn(Cc3c[nH]nn3)c3ccccc23)cc1 [Compound I-93] | 25000 | >6 | – | – | –
CS(=O)(=O)Cn1nc(-c2ccccc2)c2ccccc21 [Compound I-73] | > 80000 | – | – | – | –
COC(=O)Cn1nc(-c2cccs2)c2ccccc21 [Compound I-76] | 1250 | 32 | – | – | –
Fc1ccc(C(F)(F)F)cc1-c1nn(Cc2cnccn2)c2ccccc12 [Compound I-125] | 59 | 340 | – | – | –
COC(=O)Cn1nc(-c2cccc(OCCC3CCCCC3)c2)c2ccccc21 [Compound I-141] | 62.5 | 12 | – | – | –
CCN(CC)CCOc1cccc(-c2nn(CC(=O)OC)c3ccccc23)c1 [Compound I-138] | > 32000 | – | – | – | –
COC(=O)Cn1nc(-c2cc(OCCCC3CCCCC3)ccc2F)c2cccc(C)c21 [Compound I-101] | 1.5 | 49 | – | – | –
c1ccc(-c2nn(Cc3ccccn3)c3ccccc23)cc1 [Compound I-114] | > 120000 | – | – | – | –
COC(=O)Cn1nc(-c2cccnc2)c2ccccc21 [Compound I-121] | 15000 | – | – | – | –
COC(=O)Cn1nc(-c2cccc(OCc3ccccc3)c2C)c2ccccc21 [Compound I-133] | 400 | 30 | – | – | –
FC(F)Cn1nc(-c2ccccc2)c2ccccc21 [Compound I-110] | > 120000 | – | – | – | –
Cc1nc(Cn2nc(-c3ccccc3)c3ccccc32)no1 [Compound I-86] | 5000 | >32 | – | – | –
c1ccc(-c2nn(Cc3ncon3)c3ccccc23)cc1 [Compound I-85] | 2000 | 40 | – | – | –
COC(=O)Cn1nc(-c2ccccc2)c2cc(C(F)(F)F)ccc21 [Compound I-83] | 40000 | 3 | – | – | –
COC(=O)Cn1nc(-c2ccccc2)c2c(C)cccc21 [Compound I-81] | 1250 | 8 | – | – | –
COC(=O)Cn1nc(-c2cccc(C(F)(F)F)c2)c2ccccc21 [Compound I-72] | 40 | 200 | – | – | –
Cn1nnc(Cn2nc(-c3cc(C(F)(F)F)ccc3F)c3ccccc32)n1 [Compound I-98] | 63 | 48 | – | – | –
COC(=O)Cn1nc(-c2cc(C(F)(F)F)ccc2F)c2ccccc21 [Compound I-88] | 25 | 200 | – | – | –
